Reference: PubChem BioAssay (NCI)
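These data come from cells grown in 96-well plates and exposed to compound for 48 hours at five concentrations. GI50: concentration for 50% inhibition of growth. The concentration for full growth arrest is given as TGI.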

Columns and labels:
Assay in all cases: NCI-60 cell line screen, 48 h
[1] = test system: SR leukemia
[2] = test system: OVCAR-8 ovarian
[3] = test system: HOP-92 NSCLC
[4] = test system: UACC-62 melanoma
[5] = test system: SNB-78 CNS
[6] = test system: MOLT-4 leukemia
[7] = test system: M14 melanoma
[8] = test system: COLO 205 colon
[9] = test system: HCT-116 colon
[10] = test system: KM20L2 colon

Structure (SMILES)	TGI [1] [µM]	TGI [2] [µM]	TGI [3] [µM]	TGI [4] [µM]	TGI [5] [µM]	TGI [6] [µM]	TGI [7] [µM]	TGI [8] [µM]	TGI [9] [µM]	TGI [10] [µM]	GI50 [1] [µM]	GI50 [2] [µM]	GI50 [3] [µM]	GI50 [4] [µM]	GI50 [6] [µM]	GI50 [7] [µM]	GI50 [8] [µM]	GI50 [9] [µM]
COc1cccc(-c2cc(=O)c3cc4c(cc3[nH]2)OCO4)c1	> 100	0.868	> 100	> 100	> 100	> 100	2.95	0.303	> 100	–	–	–	–	–	–	–	–	–
CCOc1cccc2c1N[S@@](=O)S2	> 100	–	> 100	> 100	> 100	> 100	> 100	–	> 100	> 100	–	–	–	–	–	–	–	–
COC(=O)C(C(=O)C(=O)Nc1ccc(C)cc1C)c1csc(-n2nc(-c3ccccc3)cc2-c2ccccc2)n1 (centres undefined)	> 100	> 100	> 100	> 100	> 100	> 100	> 100	> 100	> 100	> 100	–	–	–	–	–	–	–	–
O=c1c2c(-c3ccccc3)c3ccccc3nc2cnn1-c1ccccc1	> 100	> 100	> 100	> 100	> 100	> 100	> 100	> 100	> 100	> 100	–	–	–	–	–	–	–	–
C=C1C(=O)C23[C@H](O)C1CC[C@H]2[C@]12COC3(O)[C@@H](O)[C@@H]1C(C)(C)CC[C@@H]2O	34.9	27.2	10.1	23.6	16.4	33.1	18.5	2.14	19.3	28.3	–	–	–	–	–	–	–	–
CCCC(=O)N[C@H]1CCc2cc(OC)c(OC)c(OC)c2-c2ccc(SC)c(=O)cc21	> 100	> 15.8	2.51	> 100	> 100	> 66.2	34.7	< 0.01	0.176	< 0.01	–	–	–	–	–	–	–	–
COC(=O)c1cc(=O)nc2cc3cccccc3n12	> 100	> 100	–	> 100	–	> 100	> 100	> 100	> 100	> 100	–	–	–	–	–	–	–	–
CC1=Nc2ccccc2SC(c2c(Cl)cccc2Cl)C1 (centres undefined)	–	0.588	3.62	2.52	23.8	12.4	3.07	3.12	0.616	2.98	–	–	–	–	–	–	–	–
CC1CC2(S(=O)(=O)c3ccccc3)ON1CC2S(=O)(=O)c1ccccc1 (centres undefined)	> 100	> 100	–	> 100	–	> 100	> 100	> 100	> 100	> 100	–	–	–	–	–	–	–	–
OC1=CN=COc2ccccc21	–	> 100	> 100	> 100	> 100	> 100	> 100	> 100	> 100	> 100	–	–	–	–	–	–	–	–
COc1ccc(/C=C(\NC(=O)c2ccccc2)c2nc3ccccc3[nH]2)cc1OC	> 100	> 100	> 100	> 100	> 100	> 100	> 100	> 100	> 100	> 100	–	–	–	–	–	–	–	–
CCCCCCC(O)CC[C@H]1CCC[C@@H](C)N1 (some centres undefined)	> 100	< 10	> 100	> 100	> 100	> 100	> 100	> 31.6	> 100	< 10	–	–	–	–	–	–	–	–
O=C1CCC2(c3ccccc3)Nc3ccccc3N12 (centres undefined)	–	> 100	> 100	> 100	> 100	> 100	> 100	> 100	–	> 100	–	–	–	–	–	–	–	–
COc1ccccc1-c1cc(=O)c2cc(C)c(C)c(C(=O)O)c2o1	–	> 100	> 100	> 100	> 100	> 100	> 100	> 100	> 100	> 100	–	–	–	–	–	–	–	–
CCOc1ccc(N=C(NC(=O)c2ccccc2)SC)cc1	> 100	> 100	> 100	> 100	> 100	> 100	> 100	> 100	> 100	> 100	–	–	–	–	–	–	–	–
COc1cc2c(c3c1c(=O)c1ccccc1n3C)C=CC(C)(C)O2	39.5	> 100	> 100	> 100	> 100	> 100	> 100	> 100	> 100	> 100	–	–	–	–	–	–	–	–
Clc1ccccc1CN1COc2c(ccc3cccnc23)C1	–	15.3	7.6	8.56	14	6.77	10.8	24.8	9.66	35.9	–	–	–	–	–	–	–	–
O=C1c2ccccc2C(=O)C12CCc1ccccc12	–	> 100	> 100	> 100	> 100	> 100	> 100	> 100	–	> 100	–	–	–	–	–	–	–	–
CN/N=C(/c1nc2ccc([N+](=O)[O-])cc2[nH]c1=O)C(O)c1ccc(C(O)/C(=N\NC)c2nc3ccc([N+](=O)[O-])cc3[nH]c2=O)cc1 (centres undefined)	–	> 100	> 100	> 100	> 100	> 100	> 100	> 100	> 100	> 100	–	–	–	–	–	–	–	–
CC(NC(=O)Cc1ccc(C(F)(F)P(=O)(OCc2ccc([N+](=O)[O-])o2)N(C)CCCCCl)cc1)c1ccc(OCC2CCCCC2)c(C(N)=O)c1 (centres undefined)	5.03	41.9	37.2	10.2	–	7.06	1.99	11.2	4.11	–	1.76	12.1	16.5	4.97	2.19	0.398	3.94	1.93
COc1ccc(O)c(C(=O)CCC(=O)O)c1	> 100	> 100	> 100	> 100	> 100	> 100	> 10	> 100	–	–	–	–	–	–	–	–	–	–
CCOC(=O)c1ccc(NC(=O)NC2=NCCS2)cc1	> 100	> 100	> 100	> 100	–	> 100	> 100	> 100	> 100	–	0.973	1.98	0.418	7.96	1.17	2.66	40.8	50.9
